Patent US4263427A, “Monensin urethane derivatives” (priority 1979, dated 1981)
Converted amounts (≈) assume the structure as drawn. Read-outs that look alike come from different tables or passages of the source.

Experiments:
Bacillus megaterium 8CU = assay: Minimum Inhibitory Concentration, agarwell diffusion assay (Table 6); type: cell-based; conditions: Priestia megaterium, 8CU, read-out: Minimum Inhibitory Concentration, Bacillus megaterium 8CU
Description: (§1) (a) Lowest twofold dilution giving zone of inhibition in the agarwell
(§2) (b) NRRL collection number, all the rest ate ATCC numbers.

Bacillus sp. E 27859 = assay: as above; type: cell-based; conditions: Bacillus
Description: as §1, §2

Bacillus sp. TA 27860 = assay: as above; type: cell-based; conditions: Bacillus
Description: as §1, §2

Bacillus subtilis 583 = assay: as above; type: cell-based
Description: as §1, §2

MycoBacterium phiel 355 = assay: as above; type: cell-based; conditions: Mycobacterium, 355, read-out: Minimum Inhibitory Concentration, MycoBacterium phiel 355
Description: as §1, §2

[1] = tested on: Paceilomyces variotl 25820; assay: as above; type: cell-based; conditions: read-out: Minimum Inhibitory Concentration, Paceilomyces variotl 25820
Description: as §1, §2

Sarcina lutca 9341 = assay: as above; type: cell-based; conditions: Sarcina, 9341, read-out: Minimum Inhibitory Concentration, Sarcina lutca 9341
Description: as §1, §2

Staph. aureus 6538 = assay: as above; type: cell-based; conditions: Staphylococcus aureus, 6538, read-out: Minimum Inhibitory Concentration, Staph. aureus 6538
Description: as §1, §2

[2] = tested on: Streptococcus cellulosac 3313; assay: as above; type: cell-based; conditions: Streptococcus, 3313, read-out: Minimum Inhibitory Concentration, Streptococcus cellulosac 3313
Description: as §1, §2

[3] = tested on: Streptococcus faecium 8043; assay: as above; type: cell-based
Description: as §1, §2

Treponema hyodysenteriae = assay: Activity against Treponema hyodysenteriae (MIC, blood agar plates); type: cell-based; conditions: Brachyspira hyodysenteriae, 48 h, 42° C., anaerobic
Description: Testing for activity against Treponema hyodysenteriae, a cause of swine dysentery consisted of inoculation of blood agar plates containing a series of two or fourfold dilutions of the monensin urethane derivatives with tenfold dilutions of the T. hyodysenteriae strain.

[4] = Oral antihypertensive activity: blood pressure and heart rate (Table 9); type: in vivo; conditions: oral dose 10 mg/kg
Description: Compounds of formula I, and their pharmaceutically acceptable salts are orally active as antihypertensive agents.

rumen fluid = conditions: 50 ppm; control 100
Eimeria tenella = assay: Anti-coccidial effect of monensin urethanes added to the feed of infected chickens (Table 7); type: in vivo; conditions: 125 ppm in feed; infected untreated control 3.0; less than 2.5 significant
Protocol: This test utilizes ten chickens per drug group. Ten chickens are employed as a weight control and ten chickens as an infected control. The drug is given 48 hours in advance of the infection. One gm. of the test drug is mixed in a mechanical mixer with a sufficient amount of chicken feed to result in the desired dosage. The infection consists of approximately 200,000 oocysts given orally by pipette. The tests lasts for eleven days and then the surviving birds are autopsied and examined for gross lesions in the ceca. The test birds are rated according to the number of survivors and the number of cecal lesions. The results are expressed as average degree of infection (A.D.I.). An average degree of infection of less than 2.5 is considered to be significant.

[5] = SP.E27859, Bacillus sp. E 27859, read-out: Minimum Inhibitory Concentration
[6] = SP.TA27860, Bacillus sp. TA 27860, read-out: Minimum Inhibitory Concentration
[7] = Bacillus subtilis, 583, Bacillus subtilis 583 (NRRL), read-out: Minimum Inhibitory Concentration
[8] = Enterococcus faecium, 8043, Streptococcus faecium 8043, read-out: Minimum Inhibitory Concentration

| Compound | MIC (Bacillus megaterium 8CU) | MIC (Bacillus sp. E 27859; [5]) | MIC (Bacillus sp. TA 27860; [6]) | MIC (Bacillus subtilis 583; [7]) | MIC (MycoBacterium phiel 355) | MIC [1] | MIC (Sarcina lutca 9341) | MIC (Staph. aureus 6538) | MIC [2] | MIC [3, 8] | also measured |
| --- | --- | --- | --- | --- | --- | --- | --- | --- | --- | --- | --- |
| CCC1(C2OC(C3OC(O)(COC(=O)Nc4ccc(C(C)=O)cc4)C(C)CC3C)CC2C)CCC(C2(C)CCC3(CC(O)C(C)C(C(C)C(OC)C(C)C(=O)O)O3)O2)O1 (centres unmarked) [Monensin A,4-(methylcarbonyl) phenylurethane] | 1.6 µg/mL (≈ 1.92 µM) | 0.2 µg/mL (≈ 0.24 µM) | 0.8 µg/mL (≈ 0.961 µM) | 1.6 µg/mL (≈ 1.92 µM) | 6.3 µg/mL (≈ 7.57 µM) | 6.3 µg/mL (≈ 7.57 µM) | 1.6 µg/mL (≈ 1.92 µM) | 1.6 µg/mL (≈ 1.92 µM) | 3.1 µg/mL (≈ 3.73 µM) | 0.8 µg/mL (≈ 0.961 µM) |  |
| CCC1(C2OC(C3OC(O)(COC(=O)Nc4ccc(OC)cc4)C(C)CC3C)CC2C)CCC(C2(C)CCC3(CC(O)C(C)C(C(C)C(OC)C(C)C(=O)O)O3)O2)O1 (centres unmarked) [Monensin A,4-methoxyphenylurethane] | 0.8 µg/mL (≈ 0.976 µM) |  |  |  | 1.6 µg/mL (≈ 1.95 µM) |  | 1.6 µg/mL (≈ 1.95 µM) | 1.6 µg/mL (≈ 1.95 µM) | 6.3 µg/mL (≈ 7.68 µM) |  | MIC (Bacillus sp. E 27859; SP.E27859, read-out: Minimum Inhibitory Concentration, Bacillus sp. E 27859): 0.1 µg/mL (≈ 0.122 µM); MIC (Bacillus sp. TA 27860; SP.TA27860, read-out: Minimum Inhibitory Concentration, Bacillus sp. TA 27860): 6.3 µg/mL (≈ 7.68 µM); MIC (Bacillus subtilis 583; Bacillus subtilis, 583, read-out: Minimum Inhibitory Concentration, Bacillus subtilis 583 (NRRL)): 0.8 µg/mL (≈ 0.976 µM); MIC ([3]; Enterococcus faecium, 8043, read-out: Minimum Inhibitory Concentration, Streptococcus faecium 8043): 0.4 µg/mL (≈ 0.488 µM) |
| CCC1(C2OC(C3OC(O)(COC(=O)NC4CC4c4ccccc4)C(C)CC3C)CC2C)CCC(C2(C)CCC3(CC(O)C(C)C(C(C)C(OC)C(C)C(=O)O)O3)O2)O1 (centres unmarked) [Monensin A, 2-(phenyl)-cyclopropyl urethane] | 0.8 µg/mL (≈ 0.964 µM) | 0.4 µg/mL (≈ 0.482 µM) | 0.4 µg/mL (≈ 0.482 µM) | 0.8 µg/mL (≈ 0.964 µM) | 3.1 µg/mL (≈ 3.73 µM) | 6.3 µg/mL (≈ 7.59 µM) | 0.8 µg/mL (≈ 0.964 µM) | 3.1 µg/mL (≈ 3.73 µM) | 12.5 µg/mL (≈ 15.1 µM) | 0.2 µg/mL (≈ 0.241 µM) | MIC (Treponema hyodysenteriae): 0.4 µg/mL (≈ 0.482 µM) |
| CCC1(C2OC(C3OC(O)(COC(=O)NCCc4ccccc4)C(C)CC3C)CC2C)CCC(C2(C)CCC3(CC(O)C(C)C(C(C)C(OC)C(C)C(=O)O)O3)O2)O1 (centres unmarked) [Monensin A, 2-phenethylurethane] | 0.8 µg/mL (≈ 0.978 µM) | 0.8 µg/mL (≈ 0.978 µM) | 1.6 µg/mL (≈ 1.96 µM) | 1.6 µg/mL (≈ 1.96 µM) | 6.3 µg/mL (≈ 7.7 µM) | 12.5 µg/mL (≈ 15.3 µM) | 1.6 µg/mL (≈ 1.96 µM) | 6.3 µg/mL (≈ 7.7 µM) | 12.5 µg/mL (≈ 15.3 µM) | 0.4 µg/mL (≈ 0.489 µM) | Day of Maximum Change, Blood Pressure [4]: 5 days; Day of Maximum Change, Heart Rate [4]: 2 days; Maximum Change (%), Blood Pressure [4]: 15%; Maximum Change (%), Heart Rate [4]: 18%; Mean Blood Pressure at time of maximum effect ([4]; at time of maximum effect): 189 mm Hg; Mean Blood Pressure before treatment ([4]; before treatment): 223 mm Hg; Rate of Gas Production, Percent Production of Control Fermentations (rumen fluid): 101.7%; Total VFA, Percent Production of Control Fermentations (rumen fluid): 84.3% |
| CCC1(C2OC(C3OC(O)(COC(=O)Nc4ccc(I)cc4)C(C)CC3C)CC2C)CCC(C2(C)CCC3(CC(O)C(C)C(C(C)C(OC)C(C)C(=O)O)O3)O2)O1 (centres unmarked) [Monensin A, 4-iodophenylurethane] |  |  |  |  |  |  |  |  |  |  | Average Degree of Infected (A.D.I.) (Eimeria tenella): 0.1 |
| CCC1(C2OC(C3OC(O)(COC(=O)Nc4ccc(Oc5ccccc5)cc4)C(C)CC3C)CC2C)CCC(C2(C)CCC3(CC(O)C(C)C(C(C)C(OC)C(C)C(=O)O)O3)O2)O1 (centres unmarked) [Monensin A, 4-phenoxyphenylurethane] | 0.4 µg/mL (≈ 0.453 µM) | 0.4 µg/mL (≈ 0.453 µM) | 0.2 µg/mL (≈ 0.227 µM) | 0.4 µg/mL (≈ 0.453 µM) | 1.6 µg/mL (≈ 1.81 µM) | 0.8 µg/mL (≈ 0.907 µM) | 0.4 µg/mL (≈ 0.453 µM) | 0.4 µg/mL (≈ 0.453 µM) | 0.8 µg/mL (≈ 0.907 µM) | 0.1 µg/mL (≈ 0.113 µM) |  |
